Here are results for 17 compounds from patent US8835429B2, “Pyrimidine compounds, their use as mTOR kinase and Pl3 kinase inhibitors, and their syntheses” (Wyeth LLC, priority 2009, dated 2014).

Some results are limits rather than exact numbers.

For experiment [1], the target named is PI3K-alpha (Homo sapiens, UniProt P42336). As to the kind of experiment: PI3K-alpha fluorescence polarization assay. It counts as biochemical. The following applies: 20 μM PIP2, 25 μM ATP; read-out: PI3Kα IC50. On the procedure: The reaction buffer was 20 mM HEPES, pH 7.5, 2 mM MgCl2, 0.05% CHAPS; and 0.01% βME (added fresh). The stop/detection buffer was 100 mM HEPES, pH 7.5, 4 mM EDTA, 0.05% CHAPS; ATP 20 mM in water; PIP2 (diC8, Echelon, Salt Lake City Utah cat #P-4508) 1 mM in water (MW=856.5). The GST-GRP was 1.75 mg/mL or 1.4 mg/mL in 10% glycerol. The red detector (TAMRA) was 2.5 μM. Nunc 384-well black polypropylene fluorescent plates were used for PI3K assays.
The assay is run by placing 5 μL of diluted enzyme per well, then 5 μL of diluted compound (or 9.5 μL enzyme then 0.5 μL compound in DMSO) is added and mixed. Then, 10 μL substrate is added to start the reaction. The samples are incubated 30-60 minutes, then the reaction is stopped by adding 20 μL stop/detector mix. PI3K is diluted with reaction buffer (e.g., 5 μL or 7.5 μL PI3K into 620 μL reaction buffer), and 5 μL of diluted enzyme is used per well. A 5 μL portion of reaction buffer or of drug diluted in buffer (e.g., 4 μL/100 so final DMSO is 1% in reaction) is added to each. Pipetting up and down mixes the samples. Alternatively, the enzyme can be diluted to 1215 μL. In this case 9.8 μL is added per well and 0.2 μL compound is added in DMSO.
To prepare 1 mL of substrate solution, 955 μL reaction buffer, 40 μL PIP2, and 2.5 μL ATP are mixed. 10 μL of substrate is added to each well to start the reaction. […] The stop/detector mix is prepared by mixing 4 μL red detector and 1.6 μL or 2.0 μL GST-GRP with 1 mL stop buffer, which results in 10 nM probe and 70 nM GST-GRP. 20 μL of the stop/detector mix is added to each well to stop the reaction. The plates are read after 30-90 minutes keeping the red probe solutions dark. For the zero time point, stop/detector mix is added to the enzyme just before adding substrate. For an extra control, stop/detector mix is added to buffer (no enzyme) and substrate or to just buffer (no substrate). […] The recommended reaction has 0.06 μL per 20 μL (0.015 μg/20 μL) or 0.01125 μg/15 μL or 0.75 μg/mL.
Plates are read on machines with filters for TAMRA. The units are mP with no enzyme controls reading app 190-220 mP units. Fully active enzyme reduces fluorescence polarization down to 70-100 mP after 30 minutes. An active compound raises the mP values halfway to control or to 120-150 mP units.
Background: Fluorescence polarisation rises when a labelled molecule tumbles more slowly, as on binding a larger partner.

The subject of experiment [2] is MDA468. Briefly: In vitro cell growth assay (MTS), MDA468. It counts as cell-based. As to conditions: 72 h, human breast line MDA468, three days after drug treatment, read-out: MDA IC50. On the procedure:
(§1) The cell lines used were human prostate lines LNCap and PC3MM2, human breast lines MDA468 and MCF7, human renal line HTB44 (A498), human colon line HCT116, and human ovarian line OVCAR3. Cells were plated in 96-well culture plates. One day following plating, the inhibitors were added to cells. Three days after drug treatment, viable cell densities were determined by metabolic conversion (by viable cells) of the dye MTS, a well-established cell proliferation assay. The assays were performed using an assay kit purchased from Promega Corp. (Madison, Wis.) following the protocol supplied with the kit. The MTS assay results were read in a 96-well plate reader by measuring absorbance at 490 nm. The effect of each treatment was calculated as percent of control growth relative to the vehicle-treated cells grown in the same culture plate.

In experiment [3] the target is mTOR (Homo sapiens, UniProt P42345). As to the kind of experiment: mTOR enzyme assay (DELFIA, purified FLAG-TOR, His6-S6K substrate). The class given is biochemical. Further details: FLAG. The following applies: 100 μM ATP, 2 hours.
The test system of experiment [4] is LNCap. Briefly: In vitro cell growth assay (MTS), LNCap. The class given is cell-based. The following applies: LNCaP, 72 h, human prostate line, three days after drug treatment. On the procedure:
as §1

Chain of mTOR (P42345 1360-2549 limits assumed): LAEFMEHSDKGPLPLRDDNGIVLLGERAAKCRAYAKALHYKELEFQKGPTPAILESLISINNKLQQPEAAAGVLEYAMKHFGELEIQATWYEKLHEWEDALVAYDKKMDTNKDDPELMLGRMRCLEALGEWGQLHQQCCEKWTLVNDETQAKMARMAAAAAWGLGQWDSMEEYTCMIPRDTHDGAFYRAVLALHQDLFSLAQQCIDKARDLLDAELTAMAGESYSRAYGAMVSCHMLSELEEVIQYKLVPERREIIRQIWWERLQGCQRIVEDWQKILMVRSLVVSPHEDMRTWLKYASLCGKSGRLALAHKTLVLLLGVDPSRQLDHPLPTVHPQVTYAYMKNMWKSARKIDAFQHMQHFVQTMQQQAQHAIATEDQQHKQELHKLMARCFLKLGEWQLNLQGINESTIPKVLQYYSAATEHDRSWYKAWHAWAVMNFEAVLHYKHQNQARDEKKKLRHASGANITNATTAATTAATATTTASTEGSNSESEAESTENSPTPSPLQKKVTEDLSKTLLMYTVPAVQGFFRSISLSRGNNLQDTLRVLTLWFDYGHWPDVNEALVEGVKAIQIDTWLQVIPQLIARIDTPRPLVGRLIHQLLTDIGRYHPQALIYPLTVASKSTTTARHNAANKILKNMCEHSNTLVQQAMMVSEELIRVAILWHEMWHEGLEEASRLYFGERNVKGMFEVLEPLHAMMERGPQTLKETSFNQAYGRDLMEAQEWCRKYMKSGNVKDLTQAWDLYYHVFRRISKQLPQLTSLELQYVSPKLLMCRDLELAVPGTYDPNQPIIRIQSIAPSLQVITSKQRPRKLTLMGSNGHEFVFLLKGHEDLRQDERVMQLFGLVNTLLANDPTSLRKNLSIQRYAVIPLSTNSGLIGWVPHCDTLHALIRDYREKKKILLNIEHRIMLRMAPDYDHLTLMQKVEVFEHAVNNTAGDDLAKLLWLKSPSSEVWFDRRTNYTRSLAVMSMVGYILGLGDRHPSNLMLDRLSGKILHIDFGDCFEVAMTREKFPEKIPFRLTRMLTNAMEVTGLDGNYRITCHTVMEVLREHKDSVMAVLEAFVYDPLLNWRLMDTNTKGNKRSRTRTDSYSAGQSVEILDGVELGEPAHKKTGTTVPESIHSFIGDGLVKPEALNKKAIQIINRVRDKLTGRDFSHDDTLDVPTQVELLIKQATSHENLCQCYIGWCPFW
Chain of PI3K-alpha (P42336 whole entry, species assumed): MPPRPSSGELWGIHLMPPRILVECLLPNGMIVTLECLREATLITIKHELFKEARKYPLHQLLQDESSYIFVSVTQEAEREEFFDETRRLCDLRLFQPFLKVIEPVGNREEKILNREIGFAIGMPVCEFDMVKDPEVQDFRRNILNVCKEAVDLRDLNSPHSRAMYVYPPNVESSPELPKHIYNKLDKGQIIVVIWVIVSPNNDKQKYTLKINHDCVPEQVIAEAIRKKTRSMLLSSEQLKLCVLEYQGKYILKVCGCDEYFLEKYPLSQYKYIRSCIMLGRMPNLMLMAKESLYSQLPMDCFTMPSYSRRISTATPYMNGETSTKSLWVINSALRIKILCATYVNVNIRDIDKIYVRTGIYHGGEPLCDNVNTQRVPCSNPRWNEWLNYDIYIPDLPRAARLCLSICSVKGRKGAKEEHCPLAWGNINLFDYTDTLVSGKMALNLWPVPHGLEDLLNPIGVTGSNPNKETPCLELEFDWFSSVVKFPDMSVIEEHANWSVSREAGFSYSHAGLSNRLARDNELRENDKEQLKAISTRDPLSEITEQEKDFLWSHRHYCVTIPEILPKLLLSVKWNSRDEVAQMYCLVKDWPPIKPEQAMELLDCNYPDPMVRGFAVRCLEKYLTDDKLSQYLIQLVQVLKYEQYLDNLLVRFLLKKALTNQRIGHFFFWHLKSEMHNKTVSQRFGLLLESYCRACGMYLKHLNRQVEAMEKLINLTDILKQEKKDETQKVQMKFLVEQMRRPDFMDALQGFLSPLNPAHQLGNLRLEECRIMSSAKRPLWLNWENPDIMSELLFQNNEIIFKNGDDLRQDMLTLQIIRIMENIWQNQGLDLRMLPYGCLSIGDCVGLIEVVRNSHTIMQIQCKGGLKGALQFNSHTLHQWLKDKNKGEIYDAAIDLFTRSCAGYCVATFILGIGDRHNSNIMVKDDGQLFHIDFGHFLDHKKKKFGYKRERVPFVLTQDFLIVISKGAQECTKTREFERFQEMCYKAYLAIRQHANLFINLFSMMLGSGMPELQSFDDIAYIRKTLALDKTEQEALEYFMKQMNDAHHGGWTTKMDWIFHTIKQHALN
Chain of PI3K-alpha (P27986 whole entry partner, species assumed): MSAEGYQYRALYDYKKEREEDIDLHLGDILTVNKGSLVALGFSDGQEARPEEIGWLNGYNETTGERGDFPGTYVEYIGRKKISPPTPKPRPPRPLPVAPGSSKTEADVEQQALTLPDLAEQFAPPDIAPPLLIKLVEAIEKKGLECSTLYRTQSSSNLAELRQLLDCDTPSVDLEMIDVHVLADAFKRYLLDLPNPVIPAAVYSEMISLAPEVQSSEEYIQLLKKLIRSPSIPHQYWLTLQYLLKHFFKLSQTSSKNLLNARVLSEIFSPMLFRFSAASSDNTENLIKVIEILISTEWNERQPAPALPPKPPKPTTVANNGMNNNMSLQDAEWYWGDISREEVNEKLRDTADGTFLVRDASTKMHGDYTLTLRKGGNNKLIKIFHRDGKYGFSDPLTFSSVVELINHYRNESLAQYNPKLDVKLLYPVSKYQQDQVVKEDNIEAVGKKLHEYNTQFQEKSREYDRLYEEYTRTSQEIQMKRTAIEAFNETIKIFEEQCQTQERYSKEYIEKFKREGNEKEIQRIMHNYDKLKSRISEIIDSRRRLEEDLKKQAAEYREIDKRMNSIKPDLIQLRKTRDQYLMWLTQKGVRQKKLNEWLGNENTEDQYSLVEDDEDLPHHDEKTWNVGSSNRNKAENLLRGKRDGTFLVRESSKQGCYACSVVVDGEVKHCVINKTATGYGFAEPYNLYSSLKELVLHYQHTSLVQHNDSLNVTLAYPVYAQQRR

In the case of `O=C(Nc1ccncc1)Nc1ccc(-c2nc(N3C4CCC3COC4)cc(N3C4CCC3COC4)n2)cc1` [1-[4-(4,6-di-3-oxa-8-azabicyclo[3.2.1]oct-8-ylpyrimidin-2-yl)phenyl]-3-pyridin-4-ylurea], the 50% inhibitory concentration (IC50) – broadly, the concentration at which inhibition is half-maximal – stood at 0.954 µM in experiment [1], 0.019 µM in experiment [2], 0.000655 µM in experiment [3] and 0.003 µM in experiment [4].

Consider `CNC(=O)Nc1ccc(-c2cc(N3CC4CCC(C3)O4)nc(-c3ccc(NC(=O)NC)cc3)n2)cc1` [N′,N′″-{[6-(8-oxa-3-azabicyclo[3.2.1]oct-3-yl)pyrimidine-2,4-diyl]di-4,1-phenylene}bis(1-methylurea)], for which the IC50 was 0.99 µM in experiment [1], 1.1 µM in experiment [2], 0.0028 µM in experiment [3] and 1.2 µM in experiment [4].

As for `CC(C)Nc1cc(N2C3CCC2COC3)nc(-c2ccc(NC(=O)Nc3ccc(N4CCN(C)CC4)cc3)cc2)n1` [1-{4-[4-(isopropylamino)-6-(3-oxa-8-azabicyclo[3.2.1]oct-8-yl)pyrimidin-2-yl]phenyl}-3-[4-(4-methylpiperazin-1-yl)phenyl]urea], the half-maximal inhibitory concentration (IC50) worked out at 2 µM in experiment [1], 0.034 µM in experiment [2], 0.0027 µM in experiment [3] and 0.019 µM in experiment [4].

Consider `CS(=O)(=O)Cc1cc(N2CC3CCC(C2)O3)nc(-c2ccc(NC(=O)Nc3ccc(N4CCNCC4)cc3)cc2)n1` [1-(4-{4-[(methylsulfonyl)methyl]-6-(8-oxa-3-azabicyclo[3.2.1]oct-3-yl)pyrimidin-2-yl}phenyl)-3-(4-piperazin-1-ylphenyl)urea], for which the 50% inhibitory concentration (IC50) in experiment [1] came out at 0.242 µM; in experiment [2], 0.11 µM; in experiment [3], 0.003 µM; in experiment [4], 0.09 µM.

Turning to `O=C(Nc1ccncc1)Nc1ccc(-c2nc(-c3ccccc3)cc(N3CC4CCC(C3)O4)n2)cc1` [1-{4-[4-(8-oxa-3-azabicyclo[3.2.1]oct-3-yl)-6-phenylpyrimidin-2-yl]phenyl}-3-pyridin-4-ylurea], the IC50 stood at 0.229 µM in experiment [1], 0.39 µM in experiment [2], 0.0056 µM in experiment [3] and 0.29 µM in experiment [4].

`CC(C)Nc1nc(-c2ccc(NC(=O)Nc3cccnc3)cc2)nc(N2CC3CCC(C2)O3)c1NC(=O)CCN(C)C` [N~3~,N~3~-dimethyl-N-(4-[(1-methylethyl)amino]-6-(8-oxa-3-azabicyclo[3.2.1]oct-3-yl)-2-{4-[(pyridin-3-ylcarbamoyl)amino]phenyl}pyrimidin-5-yl)-beta-alaninamide]: the IC50 is 5.98 µM in experiment [1], at least 60 µM in experiment [2], 13.5 µM in experiment [3] and 30 µM in experiment [4].

Turning to `CS(=O)(=O)Cc1cc(N2CC3CCC(C2)O3)nc(-c2ccc(NC(=O)Nc3ccncc3)cc2)n1` [1-(4-{4-[(methylsulfonyl)methyl]-6-(8-oxa-3-azabicyclo[3.2.1]oct-3-yl)pyrimidin-2-yl}phenyl)-3-pyridin-4-ylurea], the concentration for half-maximal inhibition (IC50) amounted to 0.236 µM in experiment [1], 0.075 µM in experiment [2], 0.000825 µM in experiment [3] and 0.15 µM in experiment [4].

Consider `CCNC(=O)Nc1ccc(-c2nc(CS(C)(=O)=O)cc(N3CC4CCC(C3)O4)n2)cc1` [1-ethyl-3-(4-{4-[(methylsulfonyl)methyl]-6-(8-oxa-3-azabicyclo[3.2.1]oct-3-yl)pyrimidin-2-yl}phenyl)urea], for which the half-maximal inhibitory concentration (IC50) was 1.81 µM in experiment [1], 1.9 µM in experiment [2], 0.00575 µM in experiment [3] and 1 µM in experiment [4].

Take `CN1CCN(Cc2ccc(NC(=O)Nc3ccc(-c4nc(N5C6CCC5COC6)cc(N5C6CCC5COC6)n4)cc3)cc2)CC1` [1-[4-(4,6-di-3-oxa-8-azabicyclo[3.2.1]oct-8-ylpyrimidin-2-yl)phenyl]-3-{4-[(4-methylpiperazin-1-yl)methyl]phenyl}urea]: the IC50 in experiment [1] was 1.95 µM; in experiment [2], 0.004 µM; in experiment [3], 0.00225 µM; in experiment [4], at most 0.0008 µM.

In the case of `CS(=O)(=O)Cc1cc(N2CC3CCC(C2)O3)nc(-c2ccc(NC(=O)Nc3ccccc3)cc2)n1` [1-(4-{4-[(methylsulfonyl)methyl]-6-(8-oxa-3-azabicyclo[3.2.1]oct-3-yl)pyrimidin-2-yl}phenyl)-3-phenylurea], the IC50 in experiment [1] stood at 0.172 µM; in experiment [2], 0.009 µM; in experiment [3] it was 0.003 µM; in experiment [4], 0.0009 µM.

On to `CN1CCN(c2ccc(NC(=O)Nc3ccc(-c4nc(N5CC6CCC(C5)O6)cc(C(F)(F)F)n4)cc3)cc2)CC1` [1-[4-(4-methylpiperazin-1-yl)phenyl]-3-{4-[4-(8-oxa-3-azabicyclo[3.2.1]oct-3-yl)-6-(trifluoromethyl)pyrimidin-2-yl]phenyl}urea], for which the half-inhibitory concentration (IC50) was found to be 0.44 µM in experiment [1], 0.19 µM in experiment [2], 0.011 µM in experiment [3] and 0.05 µM in experiment [4].

On to `O=C(Nc1ccc(-c2cc(N3CC4CCC(C3)O4)nc(-c3ccc(NC(=O)Nc4cccnc4)cc3)n2)cc1)Nc1cccnc1` [N,N″-{[6-(8-oxa-3-azabicyclo[3.2.1]oct-3-yl)pyrimidine-2,4-diyl]di-4,1-phenylene}bis(3-pyridin-3-ylurea)], for which the IC50 in experiment [1] is 0.101 µM; in experiment [2] it was 0.38 µM; in experiment [3], 0.0028 µM; in experiment [4] it was 0.18 µM.

On to `O=C(Nc1ccncc1)Nc1ccc(-c2nc(N3CC4CCC(C3)O4)cc(C(F)(F)F)n2)cc1` [1-{4-[4-(8-oxa-3-azabicyclo[3.2.1]oct-3-yl)-6-(trifluoromethyl)pyrimidin-2-yl]phenyl}-3-pyridin-4-ylurea], for which the half-inhibitory concentration (IC50) is 0.28 µM in experiment [1], 0.25 µM in experiment [2], 0.00245 µM in experiment [3] and 0.05 µM in experiment [4].

For the compound `CC(C)Oc1cc(N2CC3CCC(C2)O3)nc(-c2ccc(NC(=O)Nc3ccc(N4CCN(C)CC4)cc3)cc2)n1` [1-{4-[4-(1-methylethoxy)-6-(8-oxa-3-azabicyclo[3.2.1]oct-3-yl)pyrimidin-2-yl]phenyl}-3-[4-(4-methylpiperazin-1-yl)phenyl]urea], the IC50 in experiment [1] came to 0.518 µM; in experiment [2] it was 0.105 µM; in experiment [3], 0.00332 µM; in experiment [4], 0.03 µM.

Turning to `CS(=O)(=O)Cc1cc(N2CC3CCC(C2)O3)nc(-c2ccc(NC(=O)NC3CC3)cc2)n1` [1-cyclopropyl-3-(4-{4-[(methylsulfonyl)methyl]-6-(8-oxa-3-azabicyclo[3.2.1]oct-3-yl)pyrimidin-2-yl}phenyl)urea], the IC50 in experiment [1] turned out to be 4.64 µM; in experiment [2], 2.5 µM; in experiment [3] it was 0.0057 µM; in experiment [4], 1 µM.

`CNC(=O)Nc1ccc(-c2nc(-c3ccccc3)cc(N3CC4CCC(C3)O4)n2)cc1` [1-methyl-3-{4-[4-(8-oxa-3-azabicyclo[3.2.1]oct-3-yl)-6-phenylpyrimidin-2-yl]phenyl}urea]: the IC50 came out at 0.953 µM in experiment [1], 2 µM in experiment [2], 0.022 µM in experiment [3] and 0.51 µM in experiment [4].

For the compound `CC(C)Nc1cc(N2C3CCC2COC3)nc(-c2ccc(NC(=O)Nc3ccc(OCCN(C)C)cc3)cc2)n1` [1-{4-[2-(dimethylamino)ethoxy]phenyl}-3-{4-[4-(isopropylamino)-6-(3-oxa-8-azabicyclo[3.2.1]oct-8-yl)pyrimidin-2-yl]phenyl}urea], the IC50 in experiment [1] amounted to 2.38 µM; in experiment [2], 0.71 µM; in experiment [3], 0.0036 µM; in experiment [4], 0.05 µM.
